Assay [1] deals with platelet rich plasma (PRP). The experiment in a line: Inhibitory effects on platelet aggregation using platelet rich plasma (thrombin-induced). The class given is cell-based. The conditions noted are these: Homo sapiens, 0.1 h, aggregation initiated with thrombin 0.5–1.5 units/ml, area under aggregation curve over 6 minutes, read-out: Thr IC50. How it is done: [Inhibitory Effects on Platelet Aggregation Using Platelet Rich Plasma]
Blood was sampled from a healthy adult who had taken no drugs for one week, and 3.8% citric acid (a ratio of 1:9 with respect to the blood) was added as an anticoagulant. The mixture was then centrifuged at 100 g for 10 minutes at room temperature to yield platelet rich plasma (PRP). The PRP-removed blood was further centrifuged at 1000 g for 10 minutes to yield platelet poor plasma (PPP). The number of platelet was counted using a multi-parameter automatic hemocyte counter (K4500, Sysmex), and the PRP was diluted to approximately 300,000/μl with the PPP. The platelet aggregation activity was determined in the following manner using an Aggregometer (MC Medical). […] After addition of thrombin, the aggregation reaction was examined for 6 minutes and the areas under the aggregation curves were compared to determine the inhibition ratio, from which the IC50 value was calculated.

A further assay concerns the target T1, PAR1 thrombin receptor (Homo sapiens, UniProt P25116).
T1 construct: centrifuged at 40,000 g for 60 minutes to yield platelet membrane; from tissue; host or cells: platelet membrane prepared from platelet rich plasma of a healthy adult donor
T1 sequence (P25116 22-425): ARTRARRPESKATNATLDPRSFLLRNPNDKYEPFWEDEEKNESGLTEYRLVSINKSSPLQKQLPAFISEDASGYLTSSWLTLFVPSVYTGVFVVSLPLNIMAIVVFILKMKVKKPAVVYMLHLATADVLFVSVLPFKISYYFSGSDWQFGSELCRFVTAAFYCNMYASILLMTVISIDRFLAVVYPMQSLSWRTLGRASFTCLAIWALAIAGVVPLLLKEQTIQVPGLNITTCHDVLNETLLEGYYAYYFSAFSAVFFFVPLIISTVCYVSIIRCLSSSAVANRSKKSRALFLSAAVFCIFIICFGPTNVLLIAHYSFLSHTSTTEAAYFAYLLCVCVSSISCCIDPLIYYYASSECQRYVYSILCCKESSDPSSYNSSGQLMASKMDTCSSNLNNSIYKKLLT
The assay is described as follows: Receptor binding assay ([3H] high affinity TRAP, platelet membrane). To be noted: 25 nM [3H] high affinity TRAP, 37° C. for 1 hour, read-out: RBA IC50. The protocol:
Blood was sampled from a healthy adult who had taken no drugs for one week, and 3.8% citric acid (a ratio of 1:9 with respect to the blood) was added as an anticoagulant. The mixture was then centrifuged at 100 g for 10 minutes at room temperature to yield platelet rich plasma (PRP). The platelet precipitate obtained by centrifuging the PRP was homogenized with a Dounce homogenizer, and then centrifuged at 40,000 g for 60 minutes to yield platelet membrane. The platelet membrane was suspended in a solution prepared by adding DMSO (dimethyl sulfoxide) at 1% concentration to Buffer 1: a 50 mM Tris-HCl buffer containing 10 mM MgCl2 and 1 mM EGTA (ethylene glycol tetraacetic acid), and the suspension was stored at −80° C. Bovine albumin and DMSO were added to Buffer 1 at 0.1% and 20%, respectively, to make a preparation solution for the test compound. […] Next, 30 μl of liquid scintillator was added for measurement of the radioactivity of the plate using a Top Counter (Packard), the value of the radioactivity in the presence of the test compound minus non-specific binding portion was divided by the specific binding value (the value of the binding in the absence of the compound minus the non-specific binding portion) to determine the binding ratio, from which the IC50 value was calculated. […]

The subject of assay [2] is Vascular smooth muscle cells (rSMC). The assay is described as follows: Rat smooth muscle cell proliferation assay (thrombin-stimulated, MTT). The conditions noted are these: 48 h; male SD rat aorta rSMC, thrombin 0.1 unit/ml, 2 days, MTT OD 590 nm; read-out: Rat SMC IC50. The class given is cell-based. How it is done: [Rat Smooth Muscle Cell Proliferation Assay]
Vascular smooth muscle cells (rSMC) were isolated from male SD rat aorta by the explant method. DMEM medium (Sigma) containing 10% fetal bovine serum (GibcoBRL), streptomycin and penicillin was used as the proliferation medium, and subculture was carried out at 37° C. in the presence of 5% CO2. Culture was initiated after adding 100 μl of rSMC suspension in proliferation medium at a concentration of 1×10^4 cells/ml, to a 96-well plate. After 3 days, cells were rinsed twice with 100 μl of DMEM medium, the medium was exchanged with 100 μl of DMEM medium containing 0.1% albumin (starvation medium), and serum starvation was initiated. […]
Upon adding 20 μl of MTT (3-[4,5-dimethylthiazol-2-yl]-2,5-diphenyltetrazolium bromide) dissolved in DPBS to 7.5 mg/ml, incubation was continued for 4 hours. […] As an index of cell proliferation, the OD 590 nm was measured using a plate reader (EL340, BIO-TEK Instruments Inc.), and the control OD value (OD value in the absence of the test compound) minus the OD value in the presence of the test compound was divided by the control OD value minus the blank OD value (OD value without thrombin stimulation) to determine the inhibition ratio, from which the IC50 value was calculated.

Counter-ions that a name gives are not always drawn.

In the case of `CCC(CC)CCn1ccn(CC(=O)c2cc(C(C)(C)C)c(O)c(C(C)(C)C)c2)c1=N` [Example 1, 1-(3,5-Di-tert-butyl-4-hydroxy-phenyl)-2-[3-(3-ethyl-pentyl)-2-imino-2,3-dihydro-imidazol-1-yl]-ethanone hydrobromide], the values for the IC50 (in assay [1]; at PAR1 thrombin receptor; in assay [2]) were 0.54 µM, 0.074 µM and 0.3 µM, respectively.
`CC(C)(C)c1cc(C(=O)Cn2ccn(Cc3ccccc3)c2=N)cc(C(C)(C)C)c1O` [Example 2, 2-(3-Benzyl-2-imino-2,3-dihydro-imidazol-1-yl)-1-(3,5-di-tert-butyl-4-hydroxy-phenyl)-ethanone hydrobromide]: the IC50 came out at 2.4 µM in assay [1], 0.25 µM on PAR1 thrombin receptor and 0.96 µM in assay [2].

Broadly, the IC50 is the concentration that inhibits the measured activity by half.

The values are drawn from patent publication US7304083B2, “2-iminoimidazole derivatives (2)” (Eisai R&D Management Co., Ltd., priority 2001, dated 2007).
